From US6852733B2, “Sodium-hydrogen exchanger type 1 inhibitor” (Pfizer Inc., priority 2000, dated 2005)
pIC50: −log10 of the molar value.

What was measured:
human NHE-1 = human NHE-1 (Homo sapiens, UniProt P19634); test: Measurement of human NHE-1 inhibitory activity (NHE-mediated recovery of intracellular pH, BCECF fluorescence)
Description: Methodologies for measurement of human NHE-1 activity and inhibitor potency are based on those published by Watson et al., Am. J. Physiol., 24:G229-G238, 1991), where NHE-mediated recovery of intracellular pH is measured following intracellular acidification. Thus, fibroblasts stably expressing human NHE-1 (Counillon, L. et al., Mol. Pharmacol., 44:1041-1045 (1993) are plated onto collagen coated 96 well plates (50,000/well) and grown to confluence in growth media (DMEM high glucose, 10% fetal bovine serum, 50 u/ml penicillin and streptomycin). Confluent plates are incubated for 30 min at 37° C. with the pH sensitive fluorescent probe BCECF (5 μM; Molecular Probes, Eugene, Oreg.). BCECF loaded cells are incubated for 30 min at 37° C. in acid loading media (70 mM choline chloride, 50 mM NHCl4, 5 mM KCl, 1 mM MgCl2, 1.8 mM CaCl2, 5 mM glucose, 10 mM HEPES, pH 7.5), and then placed in a Fluorescent Imaging Plate Reader (Molecular Devices, CA). BCECF fluorescence is monitored using excitation and emission wavelengths of 485 nm and 525 nM, respectively. Intracellular acidification is initiated via rapid replacement of acid loading media with recovery media (120 mM NaCl, 5 mM KCl, 1 mM MgCl2, 1.8 mM CaCl2, 5 mM glucose, 10 mM HEPES, pH 7.5)±test compound, and NHE-mediated recovery of intracellular pH is monitored as the subsequent time-dependent increase BCECF fluorescence.

[1] = Identification of metabolite in human plasma samples by LC/MS/MS and LC/NMR; format: in vivo; settings: human plasma after intravenous administration of 5-cyclopropyl-1-(quinolin-5-yl)-1H-pyrazole-4-carbonyl]guanidine
Description: It was identified from samples of human plasma obtained after intravenous administration of 5-cyclopropyl-1-(quinolin-5-yl)-1H-pyrazole-4-carbonyl]guanidine to human subjects. The structure of this compound was independently verified by chemical synthesis. In another aspect of this invention [5-cyclopropyl-1-(2-quinolon-5-yl)-1H-pyrazole-4-carbonyl]guanidine may be prepared by administering [5-cyclopropyl-1-(quinolin-5-yl)-1H-pyrazole-4-carbonyl]guanidine to a human and isolating the desired metabolite from the plasma. Alternatively, the metabolite need not be isolated from the human since it is produced in vivo. […]
An aliquot (100 μL or 50 μL) of the concentrated sample was injected onto an LC/MS/MS instrument equipped with a Zorbax Rx-C8 4.6×150 mm column, analyzed on PE Sciex API 2000 or Finnigan LCQ mass spectrometer and monitored by UV detector at 254 nm. […] Under these LC conditions a metabolite was detected at a retention time of 11.8 minutes ([5-cyclopropyl-1-(quinolin-5-yl)-1H-pyrazole-4-carbonyl]guanidine was detected at 13.7 minutes).
The salts were removed from the above concentrated sample by solid phase extraction. […] 50 μL of this sample was injected onto an LC/NMR instrument equipped with a Zorbax Rx-C8 4.6×150 mm column, analyzed on a Bruker 500 MHz NMR spectrometer and monitored by UV detector at 235 nm. […]

Chain of human NHE-1 (P19634 whole entry): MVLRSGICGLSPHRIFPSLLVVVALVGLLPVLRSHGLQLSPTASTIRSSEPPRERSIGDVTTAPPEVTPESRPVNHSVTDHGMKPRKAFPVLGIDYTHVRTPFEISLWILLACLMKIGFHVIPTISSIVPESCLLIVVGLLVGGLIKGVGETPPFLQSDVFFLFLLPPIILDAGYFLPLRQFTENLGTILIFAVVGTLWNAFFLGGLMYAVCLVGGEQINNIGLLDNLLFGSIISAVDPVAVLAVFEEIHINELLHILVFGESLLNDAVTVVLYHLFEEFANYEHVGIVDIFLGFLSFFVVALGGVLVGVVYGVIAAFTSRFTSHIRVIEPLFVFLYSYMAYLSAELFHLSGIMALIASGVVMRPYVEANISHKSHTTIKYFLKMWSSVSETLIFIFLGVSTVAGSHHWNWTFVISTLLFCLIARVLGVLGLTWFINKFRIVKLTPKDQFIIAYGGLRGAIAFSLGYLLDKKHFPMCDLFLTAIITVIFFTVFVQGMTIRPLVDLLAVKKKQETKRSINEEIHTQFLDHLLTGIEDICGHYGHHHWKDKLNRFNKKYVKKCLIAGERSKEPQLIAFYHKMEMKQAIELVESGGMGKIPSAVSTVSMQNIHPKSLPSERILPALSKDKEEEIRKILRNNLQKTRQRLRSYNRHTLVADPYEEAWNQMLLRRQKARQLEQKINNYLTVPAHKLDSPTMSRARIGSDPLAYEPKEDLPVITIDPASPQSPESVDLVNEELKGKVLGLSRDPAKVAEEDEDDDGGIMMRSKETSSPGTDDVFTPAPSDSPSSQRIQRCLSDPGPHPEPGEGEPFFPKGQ

pIC50 (human NHE-1): 6.70 | metabolite identification in human plasma [1]: human metabolite
SMILES: N=C(N)NC(=O)c1cnn(-c2cccc3[nH]c(=O)ccc23)c1C1CC1 [Formula I, [5-cyclopropyl-1-(2-quinolon-5-yl)-1H-pyrazole-4-carbonyl]guanidine]
